From patent US12378224B2 (Dong-A Socio Holdings Co., Ltd., priority 2016, dated 2025)
Where two headings read alike, the source gives them in different places.

Tests used:
[1] = target: human MER (528-end) (Homo sapiens (Human), UniProt Q12866); assay: HTRF Kinase Activity Biochemical Assay (KinEASE-TK); conditions: 10 uM ATP
Outline: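 Activity read-out is the HTRF ratio (665 nm over 620 nm emission, ×10,000; excitation 340 nm) after 1 h detection with 0.375 nM Eu3+-cryptate anti-TK antibody plus 0.062 uM SA-XL665. Preceding kinase step: human MER (528-end), biotinylated TK substrate, 1 h, room temperature.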

[2] = target: BCR fusion to kinase domain of MerTK (Ba/F3-MerTK) (Homo sapiens, UniProt Q12866); assay: In Cell TAM Kinase Assay Using BaF3 Cellular System; format: cell-based, murine; conditions: Ba/F3 BCR-kinase fusion proliferation, 72 hours, Cell Titer Glo, kinase not given
Chain of BCR fusion to kinase domain of MerTK (Ba/F3-MerTK) (Q12866 21-999 limits assumed, stated change not applied): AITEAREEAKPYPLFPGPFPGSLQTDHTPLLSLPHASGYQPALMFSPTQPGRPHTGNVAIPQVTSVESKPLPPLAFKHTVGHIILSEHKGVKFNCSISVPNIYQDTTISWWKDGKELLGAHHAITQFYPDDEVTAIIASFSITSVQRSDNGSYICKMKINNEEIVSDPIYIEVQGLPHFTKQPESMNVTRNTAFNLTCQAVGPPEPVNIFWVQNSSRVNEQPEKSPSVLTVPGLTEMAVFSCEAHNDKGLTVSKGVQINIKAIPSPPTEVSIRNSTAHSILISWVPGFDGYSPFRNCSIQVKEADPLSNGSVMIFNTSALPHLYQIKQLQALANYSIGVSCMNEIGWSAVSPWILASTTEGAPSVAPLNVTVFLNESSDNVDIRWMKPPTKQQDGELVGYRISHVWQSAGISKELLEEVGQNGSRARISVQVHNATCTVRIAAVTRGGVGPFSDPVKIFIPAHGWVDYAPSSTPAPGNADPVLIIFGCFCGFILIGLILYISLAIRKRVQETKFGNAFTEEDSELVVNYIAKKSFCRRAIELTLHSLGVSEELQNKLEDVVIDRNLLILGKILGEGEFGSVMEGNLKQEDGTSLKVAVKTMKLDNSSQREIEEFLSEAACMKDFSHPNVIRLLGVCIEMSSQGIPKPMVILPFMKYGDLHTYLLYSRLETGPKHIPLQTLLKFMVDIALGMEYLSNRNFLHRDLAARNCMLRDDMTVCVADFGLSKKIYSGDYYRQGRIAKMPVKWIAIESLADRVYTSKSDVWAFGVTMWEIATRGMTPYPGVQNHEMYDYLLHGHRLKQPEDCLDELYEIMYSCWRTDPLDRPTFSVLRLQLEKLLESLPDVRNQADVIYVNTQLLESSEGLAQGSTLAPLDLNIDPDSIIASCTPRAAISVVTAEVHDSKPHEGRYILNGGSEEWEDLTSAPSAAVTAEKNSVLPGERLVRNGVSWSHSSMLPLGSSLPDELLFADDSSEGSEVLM
Text: Three Ba/F3 cell lines (a murine IL-3 dependent pro-B cell line) expressing BCR fusions to the kinase domains of either MerTK (Ba/F3-MerTK), Axl (Ba/F3-Axl), or Tyro3 (Ba/F3-Tyro3) were purchased from Advanced Cellular Dynamics. The IL-3 independence of all 3 cell lines was confirmed. After thawing, the 3 Ba/F3 cell lines were split and maintained in cell culture media, which consisted of RPMI-1640-HEPES (Thermo-Cat #22400-089) with 1× Glutamax (Thermo-Cat #35050-061) and 10% FBS (Sigma-Cat #F4135 (500 ml), at a cell density range of 0.05×10^6−1×10^6 cells/mL 4 days before used in the routine screen. Compound plates were prepared using Nunc™ white 384-well optical bottom plates (ThermoFisher, USA) with compound in 25 nL dimethyl sulfoxide in each well. For routine assays, each of the 3 Ba/F3 cell lines was seeded at 1,000 cells per well with 25 µL of cell culture media directly into 384-well compound plates and incubated for 72 hours. Cell proliferation was then measured by adding 25 μL of Cell Titer Glo 2.0 (Promega, USA). After incubating with Cell Titer Glo at room temperature for 30 mins, the luminescence intensity, which quantifies the cell viability, was measured using an Envision™ plate reader (PerkinElmer, USA). […] In the presence of IL-3, the proliferation of the Ba/F3-Tyro3 cells is no longer dependent on the Tyro3 kinase activity.

Chain of human MER (528-end) (Q12866 528-999 limits assumed): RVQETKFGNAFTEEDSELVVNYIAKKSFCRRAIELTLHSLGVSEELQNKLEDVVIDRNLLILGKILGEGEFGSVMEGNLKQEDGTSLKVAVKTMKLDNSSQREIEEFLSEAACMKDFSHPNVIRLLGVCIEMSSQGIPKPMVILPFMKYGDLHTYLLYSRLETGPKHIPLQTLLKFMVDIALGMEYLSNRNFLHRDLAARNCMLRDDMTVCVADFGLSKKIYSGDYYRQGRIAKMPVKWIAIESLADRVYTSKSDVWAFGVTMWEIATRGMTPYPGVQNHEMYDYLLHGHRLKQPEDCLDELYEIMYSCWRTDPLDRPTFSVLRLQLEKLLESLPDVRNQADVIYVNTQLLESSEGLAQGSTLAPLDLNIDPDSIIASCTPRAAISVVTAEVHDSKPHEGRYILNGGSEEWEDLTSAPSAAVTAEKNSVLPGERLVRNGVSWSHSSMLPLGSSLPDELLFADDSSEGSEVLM

Row | Compound | IC50 [1] [µM] | IC50 ([2]; read-out: IC50) [µM] | IC50 [2] [µM]
1 | CCc1cccc(-c2ccc(C(=O)N3CC[C@@H](NC(=O)c4cc(-c5cnn(C)c5)cnc4N)C3)cc2)c1 [Example 657, (R)-2-amino-N-(1-(3′-ethyl-[1,1′-biphenyl]-4-carbonyl)pyrrolidin-3-yl)-5-(1-methyl-1H-pyrazol-4-yl)nicotinamide] | 0.01 to 0.1 | 0.1 to 0.5 | 
2 | CC(C)c1cccc(-c2ccc(C(=O)N3CC[C@@H](NC(=O)c4cc(-c5cnn(C)c5)cnc4N)C3)cc2)c1 [Example 658, (R)-2-amino-N-(1-(3′-isopropyl-[1,1′-biphenyl]-4-carbonyl)pyrrolidin-3-yl)-5-(1-methyl-1H-pyrazol-4-yl)nicotinamide] | 0.1 to 1 | 0.5 to 1 | 
3 | COc1ccc(-c2ccc(C(=O)N3CC[C@@H](NC(=O)c4cc(-c5cnn(C)c5)cnc4N)C3)cc2)cc1OC [Example 659, (R)-2-amino-N-(1-(3′,4′-dimethoxy-[1,1′-biphenyl]-4-carbonyl)pyrrolidin-3-yl)-5-(1-methyl-1H-pyrazol-4-yl)nicotinamide] | 0.1 to 1 | > 1 | 
4 | Cn1cc(-c2cnc(N)c(C(=O)N[C@@H]3CCN(C(=O)c4ccc(-c5ccc(Cl)c(F)c5)cc4)C3)c2)cn1 [Example 661, (R)-2-amino-N-(1-(4′-chloro-3′-fluoro-[1,1′-biphenyl]-4-carbonyl)pyrrolidin-3-yl)-5-(1-methyl-1H-pyrazol-4-yl)nicotinamide] | 0.01 to 0.1 | 0.5 to 1 | 
5 | Cn1cc(-c2cnc(N)c(C(=O)N[C@@H]3CCN(C(=O)c4ccc(-c5cccc(F)c5Cl)cc4)C3)c2)cn1 [Example 673, (R)-2-amino-N-(1-(2′-chloro-3′-fluoro-[1,1′-biphenyl]-4-carbonyl)pyrrolidin-3-yl)-5-(1-methyl-1H-pyrazol-4-yl)nicotinamide] | 0.01 to 0.1 | 0.5 to 1 | 
6 | Cn1cc(-c2cnc(N)c(C(=O)N[C@@H]3CCN(C(=O)c4ccc(-c5ccc(C(=O)N6CCC(=O)CC6)cc5)cc4)C3)c2)cn1 [Example 679, (R)-2-amino-5-(1-methyl-1H-pyrazol-4-yl)-N-(1-(4′-(4-oxopiperidine-1-carbonyl)-[1,1′-biphenyl]-4-carbonyl)pyrrolidin-3-yl)nicotinamide] | > 1 |  | > 1
7 | Cn1cc(-c2cnc(N)c(C(=O)N[C@@H]3CCN(C(=O)c4cc5ccccc5n4C)C3)c2)cn1 [Example 695, (R)-2-amino-N-(1-(1-methyl-1H-indole-2-carbonyl)pyrrolidin-3-yl)-5-(1-methyl-1H-pyrazol-4-yl)nicotinamide] | > 1 | > 1 | 
8 | Cn1cc(-c2cnc(N)c(C(=O)N[C@@H]3CCN(C(=O)c4cc5cc(F)ccc5[nH]4)C3)c2)cn1 [Example 696, (R)-2-amino-N-(1-(5-fluoro-1H-indole-2-carbonyl)pyrrolidin-3-yl)-5-(1-methyl-1H-pyrazol-4-yl)nicotinamide] | > 1 | > 1 | 
9 | Cn1cc(-c2cnc(N)c(C(=O)N[C@@H]3CCN(C(=O)c4cc5ccccc5[nH]4)C3)c2)cn1 [Example 697, (R)—N-(1-(1H-indole-2-carbonyl)pyrrolidin-3-yl)-2-amino-5-(1-methyl-1H-pyrazol-4-yl)nicotinamide] | > 1 | > 1 | 
10 | Cc1[nH]c2cc(C(=O)N3CC[C@@H](NC(=O)c4cc(-c5cnn(C)c5)cnc4N)C3)ccc2c1C [Example 698, (R)-2-amino-N-(1-(2,3-dimethyl-1H-indole-6-carbonyl)pyrrolidin-3-yl)-5-(1-methyl-1H-pyrazol-4-yl)nicotinamide] | 0.1 to 1 | > 1 | 
11 | Cn1cc(-c2cnc(N)c(C(=O)N[C@@H]3CCN(C(=O)c4ccc5cccnc5n4)C3)c2)cn1 [Example 699, (R)—N-(1-(1,8-naphthyridine-2-carbonyl)pyrrolidin-3-yl)-2-amino-5-(1-methyl-1H-pyrazol-4-yl)nicotinamide] | > 1 | > 1 | 
12 | Cn1cc(-c2cnc(N)c(C(=O)N[C@@H]3CCN(C(=O)c4ccc5cnccc5n4)C3)c2)cn1 [Example 700, (R)—N-(1-(1,6-naphthyridine-2-carbonyl)pyrrolidin-3-yl)-2-amino-5-(1-methyl-1H-pyrazol-4-yl)nicotinamide] | > 1 | > 1 | 
13 | CCn1c(C(=O)N2CC[C@@H](NC(=O)c3cc(-c4cnn(C)c4)cnc3N)C2)cc2ccccc21 [Example 701, (R)-2-amino-N-(1-(1-ethyl-1H-indole-2-carbonyl)pyrrolidin-3-yl)-5-(1-methyl-1H-pyrazol-4-yl)nicotinamide] | > 1 | > 1 | 
14 | Cn1cc(-c2cnc(N)c(C(=O)N[C@@H]3CCN(C(=O)c4cc5ccccc5n4Cc4ccccc4)C3)c2)cn1 [Example 702, (R)-2-amino-N-(1-(1-benzyl-1H-indole-2-carbonyl)pyrrolidin-3-yl)-5-(1-methyl-1H-pyrazol-4-yl)nicotinamide] | > 1 | > 1 | 
15 | Cn1cc(-c2cnc(N)c(C(=O)N[C@@H]3CCN(C(=O)c4cc5c(C(F)(F)F)ccc(Cl)c5n4C)C3)c2)cn1 [Example 703, (R)-2-amino-N-(1-(7-chloro-1-methyl-4-(trifluoromethyl)-1H-indole-2-carbonyl)pyrrolidin-3-yl)-5-(1-methyl-1H-pyrazol-4-yl)nicotinamide] | > 1 | > 1 | 
16 | Cn1cc(-c2cnc(N)c(C(=O)N[C@@H]3CCN(C(=O)c4cc5c(C(F)(F)F)ccc(Cl)c5[nH]4)C3)c2)cn1 [Example 704, (R)-2-amino-N-(1-(7-chloro-4-(trifluoromethyl)-1H-indole-2-carbonyl)pyrrolidin-3-yl)-5-(1-methyl-1H-pyrazol-4-yl)nicotinamide] | > 1 | > 1 | 
17 | Cn1cc(-c2cnc(N)c(C(=O)N[C@@H]3CCN(C(=O)c4ccc5cc(O)ccc5c4)C3)c2)cn1 [Example 706, (R)-2-amino-N-(1-(6-hydroxy-2-naphthoyl)pyrrolidin-3-yl)-5-(1-methyl-1H-pyrazol-4-yl)nicotinamide] | 0.1 to 1 | > 1 | 
18 | Cn1cc(-c2cnc(N)c(C(=O)N[C@@H]3CCN(C(=O)c4c[nH]c(=O)n(-c5ccc(F)cc5)c4=O)C3)c2)cn1 [Example 707, (R)-2-amino-N-(1-(3-(4-fluorophenyl)-2,4-dioxo-1,2,3,4-tetrahydropyrimidine-5-carbonyl)pyrrolidin-3-yl)-5-(1-methyl-1H-pyrazol-4-yl)nicotinamide] | > 1 | > 1 | 
19 | Cn1cc(-c2cnc(N)c(C(=O)N[C@@H]3CCN(C(=O)c4cc5cc(Br)ccc5s4)C3)c2)cn1 [Example 708, (R)-2-amino-N-(1-(5-bromobenzo[b]thiophene-2-carbonyl)pyrrolidin-3-yl)-5-(1-methyl-1H-pyrazol-4-yl)nicotinamide] | 0.1 to 1 | 0.5 to 1 | 
20 | Cn1cc(-c2cnc(N)c(C(=O)N[C@@H]3CCN(C(=O)c4ccc5c(ccn5CC5CCNCC5)c4)C3)c2)cn1 [Example 709, (R)-2-amino-5-(1-methyl-1H-pyrazol-4-yl)-N-(1-(1-(piperidin-4-ylmethyl)-1H-indole-5-carbonyl)pyrrolidin-3-yl)nicotinamide] | 0.1 to 1 | > 1 | 
21 | Cn1cc(-c2cnc(N)c(C(=O)N[C@@H]3CCN(C(=O)c4c[nH]c5ccccc45)C3)c2)cn1 [Example 710, (R)—N-(1-(1H-indole-3-carbonyl)pyrrolidin-3-yl)-2-amino-5-(1-methyl-1H-pyrazol-4-yl)nicotinamide] | > 1 | > 1 | 
22 | Cn1cc(-c2cnc(N)c(C(=O)N[C@@H]3CCN(C(=O)c4ccc(-c5ccc(CN6CCOCC6)cc5)cc4)C3)c2)cn1 [Example 711, (R)-2-amino-5-(1-methyl-1H-pyrazol-4-yl)-N-(1-(4′-(morpholinomethyl)-[1,1′-biphenyl]-4-carbonyl)pyrrolidin-3-yl)nicotinamide] | > 1 | > 1 | 
23 | Cn1cc(-c2cnc(N)c(C(=O)N[C@@H]3CCN(C(=O)c4ccc(-c5cccc(-c6nnnn6C)c5)cc4)C3)c2)cn1 [Example 712, (R)-2-amino-5-(1-methyl-1H-pyrazol-4-yl)-N-(1-(3′-(1-methyl-1H-tetrazol-5-yl)-[1,1′-biphenyl]-4-carbonyl)pyrrolidin-3-yl)nicotinamide] | 0.01 to 0.1 | 0.5 to 1 | 
24 | Cn1cc(-c2cnc(N)c(C(=O)N[C@@H]3CCN(C(=O)c4ccc(-c5cccc(-c6nnn[nH]6)c5)cc4)C3)c2)cn1 [Example 713, (R)—N-(1-(3′-(1H-tetrazol-5-yl)-[1,1′-biphenyl]-4-carbonyl)pyrrolidin-3-yl)-2-amino-5-(1-methyl-1H-pyrazol-4-yl)nicotinamide] | 0.1 to 1 | > 1 | 
